From publication PMC12670426 (Journal of Medicinal Chemistry, 2025)
Read-outs that look alike come from different tables or passages of the source.

Experiments:
[1] = target: T1, human galectin-3C (Gal-3C, C-terminal CRD of galectin-3) (Homo sapiens, UniProt P17931); assay: Competitive fluorescence polarization assay, Gal-3C; assay type: binding
T1 construct: only the C-terminal domain was used (Gal-3C); 6xHis tag with TEV protease site (N, cleaved yes); made in house; host or cells: BL21 Escherichia coli (pET-15b)
Method: (§1) Our investigation of the structure–activity relationship of N-aryl-N-lactosylamides started with an initial screening of substituted acetanilides (Table ). These compounds can be readily synthesized from a wide range of commercially available substituted anilines. Affinity was evaluated using a fluorescence polarization assay, which enables reliable determination of dissociation constants (K d) between small molecules and galectins. All inhibitors in this series were tested against the two most common human galectins: Gal-1 and Gal-3. Gal-1 is a prototype galectin consisting of a single CRD and was used in full length. In the case of Gal-3, which consists of the C-terminal CRD and N-terminal unfolded region, only the C-terminal domain was used (Gal-3C). Affinities were compared to methyl β-lactoside (β-LacOMe) as a baseline.
(§2) Fluorescence polarization experiments for determining inhibitor affinities were performed using the same instrumentation and settings as described for the direct binding experiments. […] The galectin–probe mixture was subsequently added using a Certus Flex liquid handler (Fritz Gyger AG, Switzerland) to reach a final volume of 5 μL. Anisotropy was measured after 30–60 min incubation at 25 °C. Inhibitor dissociation constants (K d) were calculated using Wang’s exact cubic model for competitive binding implemented in the BindCurve package. Protein and probe concentrations used in these competitive experiments are provided in the Supporting Information.
(§3) Competitive binding was modeled by Wang’s exact cubic model,3 which is written as […]
(§4) r = rmin + (rmax − rmin) 3 (6) […]
(§5) where r, rmin and rmax have the same meaning as in Equation 1. The coefficients a, b, and c are […]
(§6) a = Kd∗ + Kd + [L∗]T + [L]T − [R]T (7) b = Kd∗([L]T − [R]T) + Kd([L∗]T − [R]T) + Kd∗ Kd (8) […]
(§7) where Kd∗ is the dissociation constant of the probe, Kd is the dissociation constant of the […]
(§8) the unlabeled ligand, and [R]T is the total concentration of the receptor. The angle θ is defined […]
(§9) In the competitive binding experiments, the values of [L∗]T, [R]T and Kd∗ are known and [L]T is titrated. The values of minimal and maximal anisotropy rmin and rmax were fixed during fitting at the values of the minimal and maximal asymptotes obtained from the direct binding experiments. The value of Kd was calculated as the only unfixed parameter in the model.
(§10) Experimental constants used for the competitive fluorescence polarization experiments are […]
(§11) Table S2. Experimental constants used for competitive fluorescence polarization experiments. […]

[2] = target: T2, human galectin-1 (Gal-1, full length) (Homo sapiens, UniProt P09382); assay: Competitive fluorescence polarization assay, Gal-1; assay type: binding
T2 construct: Gal-1 is a prototype galectin consisting of a single CRD and was used in full length; 6xHis tag with TEV protease site (N, cleaved yes); made in house; host or cells: BL21 Escherichia coli (pET-15b)
Method: as §1, §2, §3, §4, §5, §6, §7, §8, §9, §10, §11

T1 sequence (P17931 118-248 limits assumed): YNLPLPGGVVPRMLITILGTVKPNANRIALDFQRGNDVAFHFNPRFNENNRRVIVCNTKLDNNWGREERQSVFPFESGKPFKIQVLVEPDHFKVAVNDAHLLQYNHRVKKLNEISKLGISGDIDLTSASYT
T2 sequence (P09382 2-135): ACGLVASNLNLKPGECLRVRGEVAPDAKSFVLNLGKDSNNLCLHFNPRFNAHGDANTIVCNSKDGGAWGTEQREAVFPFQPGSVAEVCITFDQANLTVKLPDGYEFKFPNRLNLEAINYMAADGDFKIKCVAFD

Which IC50 ([1]; CSV supplement, unrounded mean, read-out: Gal3C_IC50_mean_uM) does the source give for CO[C@@H]1O[C@H](CO)[C@@H](O[C@@H]2O[C@H](CO)[C@H](O)[C@H](O)[C@H]2O)[C@H](O)[C@H]1O [β-LacOMe, methyl β-lactoside, reference compound] here?
Its IC50 is 756 µM.

And the Kd ([1]; CSV supplement, unrounded mean, read-out: Gal3C_Kd_mean_uM)?
Its Kd is 234 µM.

And the Kd ([1]; competitive fluorescence polarization, mean ± SD, read-out: Kd Gal-3C)?
Its Kd is 230 ± 20 µM.

What about the IC50 ([1]; four-parameter logistic model, mean ± SD, read-out: IC50 Gal-3C) of the same molecule?
The IC50 was 760 ± 90 µM.

And the IC50 ([2]; CSV supplement, unrounded mean, read-out: Gal1_IC50_mean_uM)?
The IC50 was 1640 µM.

And the Kd ([2]; CSV supplement, unrounded mean, read-out: Gal1_Kd_mean_uM)?
The Kd was 770 µM.

And the Kd ([2]; competitive fluorescence polarization, mean ± SD, read-out: Kd Gal-1)?
The Kd was 770 ± 200 µM.

And the IC50 ([2]; four-parameter logistic model, mean ± SD, read-out: IC50 Gal-1)?
Its IC50 is 1600 ± 70 µM.
